Reference: PubChem BioAssay AID248 (DTP/NCI, 2004)
Toxic doses and inconclusive results are not listed. Cut-off read from the data, not from the text of the source: active = T/C of 150% or more; inactive = T/C below 125%.

System: L1210 leukemia ip in BDF1 mice, survival T/C
Assay: NCI In Vivo Anticancer Drug Screen. Data for tumor model L1210 Leukemia (intraperitoneal) in B6D2F1 (BDF1) mice
Conditions: endpoint: mean survival time, vehicle: saline, higher = longer survival
Outline: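 Survival endpoint. Drug-treated group vs vehicle group, expressed as T divided by C. Tumor passaged by transplantation.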

Measured: T/C

C/C=C/C[n+]1cccc2ccccc21
inactive: dose: 6.25 mg/kg/injection, schedule: Q01DX009 (ip) 92 % of control | dose: 6.25 mg/kg/injection, schedule: Q04DX003 (ip) 98 % of control | dose: 12.5 mg/kg/injection, schedule: Q01DX009 (ip) 95 % of control | dose: 12.5 mg/kg/injection, schedule: Q04DX003 (ip) 101 % of control | dose: 25.0 mg/kg/injection, schedule: Q01DX009 (ip) 100 % of control | dose: 25.0 mg/kg/injection, schedule: Q04DX003 (ip) 101 % of control

COc1ccc(C[As+](Cc2ccccc2)(Cc2ccc(OC)cc2)Cc2ccc(OC)cc2)cc1
inactive: dose: 5.0 mg/kg/injection, schedule: Q01DX001 (ip) 103 % of control | dose: 10.0 mg/kg/injection, schedule: Q01DX001 (ip) 98 % of control | dose: 20.0 mg/kg/injection, schedule: Q01DX001 (ip) 96 % of control
